The record followed here is publication PMC9322189, “Development of a Personalized Tumor Neoantigen Based Vaccine Formulation (FRAME-001) for Use in a Phase II Trial for the Treatment of Advanced Non-Small Cell Lung Cancer” (Pharmaceutics, 2022).

No end group written: not given here.

The data set is described as follows: Freeze–thaw stability of model peptides, UPLC-MS. The data set is classed as physicochemical. As to conditions: 150 µg/mL in PBS, two freeze–thaw cycles, fivefold on three consecutive days. How it is done:
A UPLC-MS system was used for the development and validation of the stability-indicating analytical method. The apparatus, column, flow rate, mobile phase A, mobile phase B, mass acquisition, and sample run time were: UPLC UltiMate 3000 RSLC System (Thermo Fisher Scientific, Waltham, MA, USA) coupled to a Q Exactive Orbitrap Mass Spectrometers (Thermo Fisher Scientific, Waltham, MA, USA); Acquity UPLC Peptide CSH C18, 130 Å, 1.7 µm, 2.1 mm × 150 mm (Waters Corporation, Milford, MA, USA); 0.40 mL/min; 0.013% ammonium formate and 0.1% formic acid dissolved in ultrapure water (pH 2.8); 0.013% ammonium formate and 0.1% formic acid dissolved in a mixture of 0.495:0.495:0.10 methanol, acetonitrile, and ultrapure water; masses scanned from 300.0–1900.0 m/z; 15 min; respectively. The mobile phase gradient started at t0 min with 98% of mobile phase A that was gradually adjusted to 40% at t9 min. At t9.1 min, mobile phase A was set at 2% till t11.1 min. At t11.2 min, mobile phase A was set at 98% until the end of the sample run time.
For each peptide, six stock concentrations in the range of 5–225 µg/mL dissolved in PBS were made. The linear relationship of the calibration curves was investigated by regression analysis. The linear correlation coefficient (R^2), goodness of fit, and lack of fit were analyzed. For the accuracy and precision tests, samples of 50 µg/mL, 150 µg/mL, and 225 µg/mL were analyzed in triplicate on three consecutive days to determine the closeness of agreement of the measurements compared to the analyzed concentrations (accuracy % bias) and repeated experiments (relative standard deviations (RSD)). For the sensitivity test, peptide samples at 5 µg/mL were analyzed in triplicate on three consecutive days and the signal-to-noise (S/N) ratio was calculated from representative chromatograms. For the freeze–thaw experiment, samples at 150 µg/mL for each of the three peptides were prepared and analyzed in fivefold on three consecutive days after each sample was subjected to two freeze–thaw cycles before the analysis was initiated.
In the case of “SAMEKRGARETQQQRKRVFRGRGVNSAK [FRM001P11]”, the “Freeze–thaw stability, average bias” value came out at 1%. With “SVTNTSLAHELWKVPLHLKTSLLRPAHLRD [FRM001P02]”, the “Freeze–thaw stability, average bias” value is 8%. With “VTLEERLDKACEPGVDYDGQTGVIHFQPRG [FRM001P23]” the figure was 4%.
